Experimental data published in the NIST ThermoML archive (doi:10.1016/j.tca.2006.04.004).
± gives the expanded uncertainty stated by the source.

Legend:
[1] = mn = molality of the nth substance listed, in mol/kg; settings: 101 kPa, Liquid, Pycnometric method, m1 = 1.5
[2] = 101.33 kPa, Liquid, Pycnometric method

| Compound | mass density ([1]; 298.15 K) [kg/m3] | mass density ([1]; 303.15 K) [kg/m3] | mass density ([1]; 308.15 K) [kg/m3] | mass density ([1]; 313.15 K) [kg/m3] | mass density ([1]; 318.15 K) [kg/m3] | mass density ([1]; 323.15 K) [kg/m3] | mass density ([2]; 308.15 K) [kg/m3] | mass density ([2]; 318.15 K) [kg/m3] | mass density ([2]; 323.15 K) [kg/m3] |
| --- | --- | --- | --- | --- | --- | --- | --- | --- | --- |
| O=[N+]([O-])[O-].[K+] [potassium nitrate] + O | 1086.9 ± 0.6 | 1085 ± 0.6 | 1083 ± 0.6 | 1080.6 ± 0.6 | 1077.9 ± 0.6 | 1075 ± 0.6 | – | – | – |
| [Cl-].[Na+] [sodium chloride] + O | 1058.8 ± 0.6 | 1056.1 ± 0.6 | 1053.8 ± 0.6 | 1051.4 ± 0.6 | 1048.8 ± 0.6 | 1046.2 ± 0.6 | – | – | – |
| O=[N+]([O-])[O-].[Na+] [sodium nitrate] + O | 1079.1 ± 0.6 | 1076.5 ± 0.6 | 1073.5 ± 0.6 | 1070.3 ± 0.6 | 1067 ± 0.6 | 1063.7 ± 0.6 | – | – | – |
| O [water] | – | – | – | – | – | – | 994.2 ± 0.5 | 990.3 ± 0.5 | 987.9 ± 0.5 |
